“Also recorded” adds a separate entry of the source.
Columns and labels:
IKur = target: T1, IKur (Homo sapiens, UniProt P22460); assay: IKur in human atrial myocytes, whole-cell patch clamp; type: cell-based; details: for inhibition of voltage-dependent IKur (tail and step currents), in words: 3, 10 and 30 μM
T1 construct: endogenous in cells; host or cells: human right atrial myocytes, freshly isolated
Procedure: (§4) Atrial cells were isolated from specimens of human right atrial appendage obtained from patients (56.1±4.7 years old) undergoing coronary artery bypass grafting. […] After excision, the samples were quickly immersed in oxygenated, normally Ca^2+-free cardioplegic solution for transport to the laboratory. […] Briefly, the atrial tissue was minced, and gently agitated by continuous bubbling with 100% O2 in a Ca^2+-free Tyrode solution for 15 min (5 min at a time in fresh solutions), and then incubated for 50 min in a similar solution containing 150-200 U/ml collagenase (CLS II, Worthington Biochemical, Freehold, N.J., USA), 0.2 mg/ml protease (type XXIV, Sigma-Aldrich Chemical, St Louis, Mo., USA.) and 1 mg/ml bovine serum albumin (Sigma-Aldrich). After then, the chunks were re-incubated in a fresh enzyme solution of the same composition but no protease. The quantity and quality of isolated cells were monitored under a microscope. When the cell yield appeared optimal, the chunks were suspended in a high K medium containing (mM) 10 KCl, 120 K-glutamate, 10 KH2PO4, 1.8 MgSO4, 10 taurine, 10 HEPES, 0.5 EGTA, 20 glucose, 10 mannitol, pH was adjusted to 7.3 with KOH and gently blown with a pipette. The isolated myocytes were kept at room temperature in the medium at least 1 h before use.
(§5) The Ca^2+-free cardioplegic solution for specimen transport contained (in mM) 50 KH2PO4, 8 MgSO4, 5 adenosine, 10 HEPES, 140 glucose, 100 mannitol, 10 taurine, pH was adjusted to 7.3 with KOH. Tyrode solution contained (in mM) 140 NaCl, 5.4 KCl, 1 MgCl2, 1 CaCl2, 0.33 NaH2PO4, 10 HEPES, 10 glucose, pH was adjusted to 7.4 with NaOH. The pipette solution contained (in mM) 20 KCl, 110 K-aspartate, 1 MgCl2, 10 HEPES, 5 EGTA, 0.1 GTP, 5 Na2-phosphocreatine, and 5 Mg2-ATP, pH was adjusted to 7.2 with KOH. For Ito and IKur recording, BaCl2 (200 μM) and CdCl2 (200 μM) were added to the superfusion to block IK1 and ICa.L. Atropine (1.0 μM) was used to minimize possible IK.ACh contamination during the current recording. For ICa.L recording, K^+ in pipette and Tyrode solution was replaced by CsCl. INa was recorded under conditions of K^+-free and a symmetrical Na^+ (5 mM) in pipette and superfusion solutions as described previously (Li at al., 2002a).
A small aliquot of the solution containing the isolated cells was placed in an open perfusion chamber (1-ml) mounted on the stage of an inverted microscope. […]
The whole-cell patch-clamp technique was used for electrophysiological recording. […] Membrane currents were recorded in voltage-clamp mode using an EPC-9 amplifier and Pulse software (HEKA, Lambrecht, Germany). […] The cell membrane capacitance (pF) was directly measured using the lock-in module of the Pulse software, and used for normalizing the current in individual cells.

Ito = target: T2, Ito (Homo sapiens, UniProt Q9UK17); assay: Ito in human atrial myocytes, whole-cell patch clamp; type: cell-based; details: for voltage-dependence of steady-state inactivation and activation of Ito, in words: 10 μM
T2 sequence (Q9UK17 1-655): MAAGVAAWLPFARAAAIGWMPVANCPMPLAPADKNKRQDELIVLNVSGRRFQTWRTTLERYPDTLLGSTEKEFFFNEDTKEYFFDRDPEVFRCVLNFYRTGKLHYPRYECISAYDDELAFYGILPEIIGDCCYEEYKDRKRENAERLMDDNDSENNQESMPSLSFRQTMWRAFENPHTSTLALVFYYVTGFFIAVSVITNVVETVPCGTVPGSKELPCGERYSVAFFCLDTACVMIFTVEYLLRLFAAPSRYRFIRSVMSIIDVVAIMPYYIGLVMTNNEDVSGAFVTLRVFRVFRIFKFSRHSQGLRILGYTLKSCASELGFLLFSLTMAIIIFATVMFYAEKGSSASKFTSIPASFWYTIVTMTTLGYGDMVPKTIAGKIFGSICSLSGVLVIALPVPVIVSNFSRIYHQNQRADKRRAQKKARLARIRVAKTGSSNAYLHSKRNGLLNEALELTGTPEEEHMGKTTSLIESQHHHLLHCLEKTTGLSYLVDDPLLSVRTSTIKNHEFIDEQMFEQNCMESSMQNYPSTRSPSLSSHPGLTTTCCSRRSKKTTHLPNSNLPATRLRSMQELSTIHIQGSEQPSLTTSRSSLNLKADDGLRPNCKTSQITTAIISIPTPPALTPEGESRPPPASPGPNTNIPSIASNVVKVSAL
T2 sequence (Q9NS61 1-270 partner): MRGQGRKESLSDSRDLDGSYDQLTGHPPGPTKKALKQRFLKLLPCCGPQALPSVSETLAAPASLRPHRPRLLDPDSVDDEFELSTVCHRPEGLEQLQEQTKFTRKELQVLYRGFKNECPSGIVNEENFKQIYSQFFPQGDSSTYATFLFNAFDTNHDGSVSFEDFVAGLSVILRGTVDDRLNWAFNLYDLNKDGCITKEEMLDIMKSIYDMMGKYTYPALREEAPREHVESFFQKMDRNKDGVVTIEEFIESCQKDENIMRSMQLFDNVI
Procedure: as §4, §5
(§6) A small aliquot of the solution containing the isolated cells was placed in an open perfusion chamber (1-ml) mounted on the stage of an inverted microscope. Myocytes were allowed to adhere to the bottom of the chamber for 5-10 min and were the superfused at 2-3 ml/min with Tyrode solution. Only quiescent rod-shaped cells with clear cross-striations were used. The studies were conducted at room temperature (21-22° C.) for current recording or 36° C. for action potential recording.

human atrial myocytes = assay: Action potential in human atrial myocytes, perforated patch, current clamp; type: cell-based
From the text: Atrial cells were isolated from specimens of human right atrial appendage obtained from patients (56.1±4.7 years old) undergoing coronary artery bypass grafting. […] All patients were free from supraventricular tachyarrythmias, and the atria were grossly normal at the time of surgery. After excision, the samples were quickly immersed in oxygenated, normally Ca^2+-free cardioplegic solution for transport to the laboratory. Atrial myocytes were enzymatically dissociated as described previously (Tian et al., 2006; Gao et al., 2004). Briefly, the atrial tissue was minced, and gently agitated by continuous bubbling with 100% O2 in a Ca^2+-free Tyrode solution for 15 min (5 min at a time in fresh solutions), and then incubated for 50 min in a similar solution containing 150-200 U/ml collagenase (CLS II, Worthington Biochemical, Freehold, N.J., USA), 0.2 mg/ml protease (type XXIV, Sigma-Aldrich Chemical, St Louis, Mo., USA.) and 1 mg/ml bovine serum albumin (Sigma-Aldrich). After then, the chunks were re-incubated in a fresh enzyme solution of the same composition but no protease. The quantity and quality of isolated cells were monitored under a microscope. When the cell yield appeared optimal, the chunks were suspended in a high K medium containing (mM) 10 KCl, 120 K-glutamate, 10 KH2PO4, 1.8 MgSO4, 10 taurine, 10 HEPES, 0.5 EGTA, 20 glucose, 10 mannitol, pH was adjusted to 7.3 with KOH and gently blown with a pipette. The isolated myocytes were kept at room temperature in the medium at least 1 h before use.
as §6
The whole-cell patch-clamp technique was used for electrophysiological recording. Borosilicate glass electrodes (1.2-mm OD) were pulled with a Brown-Flamming puller (model P-97, Sutter Instrument Co, Novato, Calif., USA) and had tip resistances of 2-3 MΩ when filled with pipette solution. […] A 3-M KCl-agar salt bridge was used as reference electrode. The tip potentials were compensated before the pipette touched the cell. After a giga-ohm seal was obtained, the cell membrane was ruptured by gentle suction to establish the whole-cell configuration. […] The series resistance (Rs) was 3-5 MΩ and was compensated by 50-70% to minimize voltage errors. Perforated patch configuration was used for recording action potential in human atrial cells and IKs in HEK 293 cells as described previously (Li et al., 2002b; Dong et al., 2006). Current signals were low-pass filtered at 5 kHz and stored on the hard disk of an IBM compatible computer.

IK.ACh = assay: Carbachol-evoked IK.ACh in guinea pig atrial myocytes; type: cell-based; details: for IK.ACh at +50 mV / IK.ACh at −100 mV: carbachol 5 μM; for IK.ACh at +50 mV: control 147.2; for IK.ACh at −100 mV: control −338.3±61.5; for block of carbachol-evoked IK.ACh, in words: 3 and 10 μM
Procedure: (§1) Guinea pigs of either gender (250-300 g) were sacrificed by cervical dislocation after anesthetization with pentobarbital (40 mg kg, i.p.). The procedure related to the use of animals in this invention was approved by the Animal Care and Use Committee for Teaching and Research of University of Hong Kong in accordance with the Guide for the Care and Use of Laboratory Animals (Institute of Laboratory Animal Resources, Commission on Life Sciences, National Research Council, 1996). Left atrial and ventricular myocytes from guinea pig hearts were enzymatically dissociated by the procedure described previously (Li et al., 2002a) and the isolated myocytes were kept in the K^+ storage medium.
(§2) The whole-cell patch-clamp technique was used for electrophysiological recording. Borosilicate glass electrodes (1.2-mm OD) were pulled with a Brown-Flamming puller (model P-97, Sutter Instrument Co, Novato, Calif., USA) and had tip resistances of 2-3 MΩ when filled with pipette solution. Membrane currents were recorded in voltage-clamp mode using an EPC-9 amplifier and Pulse software (HEKA, Lambrecht, Germany). A 3-M KCl-agar salt bridge was used as reference electrode. The tip potentials were compensated before the pipette touched the cell. After a giga-ohm seal was obtained, the cell membrane was ruptured by gentle suction to establish the whole-cell configuration. The cell membrane capacitance (pF) was directly measured using the lock-in module of the Pulse software, and used for normalizing the current in individual cells. The series resistance (Rs) was 3-5 MΩ and was compensated by 50-70% to minimize voltage errors. Perforated patch configuration was used for recording action potential in human atrial cells and IKs in HEK 293 cells as described previously (Li et al., 2002b; Dong et al., 2006). Current signals were low-pass filtered at 5 kHz and stored on the hard disk of an IBM compatible computer.

IK1 = IK1 in guinea pig ventricular myocytes; type: cell-based; details: 30 and 100 μM
Procedure: as §1
The whole-cell patch-clamp technique was used for electrophysiological recording. Borosilicate glass electrodes (1.2-mm OD) were pulled with a Brown-Flamming puller (model P-97, Sutter Instrument Co, Novato, Calif., USA) and had tip resistances of 2-3 MΩ when filled with pipette solution. Membrane currents were recorded in voltage-clamp mode using an EPC-9 amplifier and Pulse software (HEKA, Lambrecht, Germany). A 3-M KCl-agar salt bridge was used as reference electrode. The tip potentials were compensated before the pipette touched the cell. […] The cell membrane capacitance (pF) was directly measured using the lock-in module of the Pulse software, and used for normalizing the current in individual cells. […]

[1] = target: IKs channels (hKCNQ1/hKCNE1) (Homo sapiens, UniProt P51787); assay: IKs in HEK 293 cells stably expressing hKCNQ1/hKCNE1; type: cell-based; details: for inhibition of IKs amplitude, in words: 30 μM
Procedure: (§3) The established HEK 293 cell lines stably expressing the hERG channel gene, Kv1.5 (Tang et al., 2007), or recombinant human cardiac KCNQ1/KCNE1 channel current (IKs) (Dong et al., 2006) was maintained separately in Dulbecco's modified eagle medium (Invitrogen) supplemented with 10% fetal bovine serum and containing 400 μg/ml G418 (for hERG or Kv1.5 channels) or 100 μg/ml hygromycin (for IKs).
as §2

Kv1.5 = target: T3, Kv1.5 (Homo sapiens, UniProt P22460); assay: Kv1.5 channel block in stably expressing HEK 293 cells; type: cell-based; details: HEK 293 cells stably expressing Kv1.5, Table 3; read-out: Kv1.5 (IC50)
T3 construct: expressed in transfected cells
T3 sequence (P22460 whole entry): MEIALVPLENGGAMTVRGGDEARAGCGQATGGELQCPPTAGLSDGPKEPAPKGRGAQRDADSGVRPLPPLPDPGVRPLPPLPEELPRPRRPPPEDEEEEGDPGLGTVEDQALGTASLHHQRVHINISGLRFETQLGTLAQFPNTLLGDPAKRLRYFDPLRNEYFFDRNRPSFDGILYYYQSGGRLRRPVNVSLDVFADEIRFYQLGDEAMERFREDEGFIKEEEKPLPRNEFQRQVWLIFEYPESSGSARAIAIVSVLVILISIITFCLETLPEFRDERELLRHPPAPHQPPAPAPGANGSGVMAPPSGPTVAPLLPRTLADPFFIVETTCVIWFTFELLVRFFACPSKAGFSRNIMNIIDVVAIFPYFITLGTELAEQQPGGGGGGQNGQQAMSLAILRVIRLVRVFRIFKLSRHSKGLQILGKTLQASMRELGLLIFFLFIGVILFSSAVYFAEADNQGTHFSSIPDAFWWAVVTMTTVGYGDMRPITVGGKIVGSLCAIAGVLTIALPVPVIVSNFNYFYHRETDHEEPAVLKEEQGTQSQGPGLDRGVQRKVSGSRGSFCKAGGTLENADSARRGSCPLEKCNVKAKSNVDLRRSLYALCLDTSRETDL
Procedure: as §3, §2
Other derivatives/analogs studied have no effect or a week inhibitory effect on Kv1.5.

anesthetized dogs = assay: Experimental vagotonic AF in anesthetized dogs; type: in vivo, dog; details: for summarized anti-AF efficacy: vehicle 0%; for animals in which sustained AF was not observed: vehicle: sustained AF in 100%; for prevention of AF induction, in words: 5 and 10 mg/kg intraduodenal, P<0.05 vs vehicle
Procedure: Sustained vagotonic AF was generated in anesthetized dogs by introducing two MAP catheters respectively into the right atrium and the left ventricle along with stimulation of the divided bilateral vagal nerves in the neck. […] Ventricular pacing was performed with 2 ms voltage pulses (2.5 Hz, 150% diastolic threshold) when vagal nerves were continuously stimulated. AF was generated by the BCL 100-ms S1 followed by S2, lasting for 10 min. […] The sustained AF could be repeatedly generated and terminated by stopping vagal stimulation. AF incidence and AF duration were recorded before and at different time points (0.5, 1, 1.5, 2, 3, and 4h) after intraduodenal administration of drugs.
AF was induced by S1-S2 stimulation at 100 ms BCL with bilateral vagal stimulation (see Methods & FIG. 12) at certain time points during the 0.5 to 4 h period following intraduodenal administration. AF lasted for 10 min and terminated once vagal stimulation was stopped. No AF occurrence or shortened AF duration during the continuous vagal stimulation were considered to represent prevention of AF.

Kunmin mice = assay: Acute toxicity in mice; type: in vivo; details: oral, two-week observation
From the text: The animals were observed closely with a two-week duration for death number and activity.

[2] = Water solubility (statement); type: physicochemical; details: for injection application
[3] = extract fraction / isolated compound, concentration not given

T1 sequence (P22460 whole entry): as above

With `COc1ccc(-c2cc(=O)c3c(O)cc(O)cc3o2)cc1` [Acacetin, 5,7-dihydroxy-4′-methoxyflavone] the “inhibition of voltage-dependent IKur (tail and step currents), in words” value (IKur) was “substantially inhibited”, the “inhibition of voltage-dependent IKur (tail and step currents), in words” value (IKur; listed as acacetin) was “suppressed” and the “effect on IKur in human atrial myocytes, in words” value (IKur; [3]) was “blocking effect”. For the same compound, the IC50 (IKur; human atrial myocytes, +40 mV, 0.3 to 100 μM, Hill equation fit, read-out: IC50 for inhibiting IKur) was 3.2 µM, the “voltage-dependence of steady-state inactivation and activation of Ito, in words” value (Ito) was “did not affect” and the “voltage-dependence of steady-state inactivation and activation of Ito, in words” value (Ito; listed as acacetin) was “not affected; also recorded: without affecting”. The “inhibition of voltage-dependent Ito, in words” value (Ito; 3 and 10 μM, with 10 μM verapamil) was “substantially inhibited; also recorded: reduced”, the “effect on Ito in human atrial myocytes, in words” value (Ito; [3]) was “blocking effect” and the IC50 (Ito; human atrial myocytes, +40 mV, IKur blocked with 10 μM verapamil, read-out: IC50 for inhibiting Ito) was 9.2 µM. The “rate dependence of APD prolongation, in words” value (human atrial myocytes; 10 μM, 0.5 Hz vs 2 Hz) was “slight rate-dependent increase; also recorded: slight rate-dependent prolongation”, the “action potential duration (APD50, APD75, APD90), in words” value (human atrial myocytes; 5 and 10 μM, 0.5, 1.0, 2.0 Hz, 36° C.) was “significantly prolonged” and the “resting membrane potential and amplitude of action potential, in words” value (human atrial myocytes; 5 or 10 μM, 2 Hz) was “without affecting”. The “IK.ACh at +50 mV” value (IK.ACh; 3 μM, n=5) was 87.8±36.1 pA, the “IK.ACh at −100 mV” value (IK.ACh; 3 μM, n=5) was −180.2±36.7 pA and the “IK.ACh at +50 mV” value (IK.ACh; 10 μM, n=6) was 55.7±26.2 pA. The “IK.ACh at −100 mV” value (IK.ACh; 10 μM, n=6) was −75.6±21.1 pA, the “block of carbachol-evoked IK.ACh, in words” value (IK.ACh) was “substantially blocked” and the “block of carbachol-evoked IK.ACh, in words” value (IK.ACh; listed as acacetin) was “substantially inhibits”. For the same compound, the “effect on IK1, in words” value (IK1) was “no effect; also recorded: no inhibition”, the “effect on IK1, in words” value (IK1; listed as acacetin) was “no effects” and the “inhibition of IKs amplitude, in words” value [1] was “significantly inhibited”. The “inhibition of IKs amplitude, in words” value ([1]; listed as acacetin) was “inhibited”, the IC50 ([1]; HEK 293 cells, IKs.step, +40 mV, read-out: IC50 for inhibiting IKs) was 81.4 µM and the IC50 (Kv1.5) was 3.4 µM. The “summarized anti-AF efficacy” value (anesthetized dogs; 2.5 mg/kg intraduodenal) was 50%, the “animals in which sustained AF was not observed” value (anesthetized dogs; 2.5 mg/kg intraduodenal) was 50% and the “summarized anti-AF efficacy” value (anesthetized dogs; 5 mg/kg intraduodenal) was 85.7%. The “animals in which sustained AF was not observed” value (anesthetized dogs; 5 mg/kg intraduodenal) was 57%, the “summarized anti-AF efficacy” value (anesthetized dogs; 10 mg/kg intraduodenal) was 85.7% and the “animals in which sustained AF was not observed” value (anesthetized dogs; 10 mg/kg intraduodenal) was 57%. For the same compound, the “prevention of AF induction, in words” value (anesthetized dogs) was “significantly prevented AF”, the “prevention of AF induction, in words” value (anesthetized dogs; listed as acacetin) was “significantly prevented AF induction” and the “incidence of AF, in words” value (anesthetized dogs; acacetin 2.5, 5, 10 mg/kg, sotalol 5 mg/kg, 1.5-2.5 h after intraduodenal administration) was “reduced the incidence of AF”. The “abnormal activity compared to vehicle-control animals” value (Kunmin mice; 0.3 g/kg three times) was “no abnormal activity”, the animal death (Kunmin mice; 900 mg/kg (0.3 g/kg three times at intervals of 1.5 h), 900 mg/kg) was “no animal death” and the “water solubility, in words” value [2] was “not water soluble”.
